Results taken from PMC11594133, “Enzyme (α-Glucosidase, α-Amylase, PTP1B & VEGFR-2) Inhibition and Cytotoxicity of Fluorinated Benzenesulfonic Ester Derivatives of the 5-Substituted 2-Hydroxy-3-nitroacetophenones” (International Journal of Molecular Sciences, 2024).

What was measured:
[1] = molecular target: α-glucosidase from Saccharomyces cerevisiae (Saccharomyces cerevisiae, UniProt P53341); test: biochemical
Experimental: A mixture of α-glucosidase (17 µL) from Saccharomyces cerevisiae (0.48 u/mL α-glucosidase), phosphate buffer (100 mM, pH 6.8; 50 µL) and test sample in DMSO was incubated at 37 °C for 10 min. After 10 min., a solution of 2 mM p-nitrophenyl-α-D-glucopyranoside (PNP-G, 17 µL) was added to each well to initiate the reaction. The plate was incubated for 30 min at 37 °C. Five absorbance readings were recorded for each triplicate run at a wavelength of 405 nm using Varioskan flash microplate spectrophotometer (Thermo Scientific, Waltham, MA, USA). The average values obtained from the readings were used to determine the IC50 and standard deviation values. The values were calculated by nonlinear regression analysis and expressed as the mean SD of three distinct experiments using Graph Pad Prism software.

α-glucosidase = test system: α-glucosidase; design: method as in PMID 32876951; conditions: cited from earlier work
A549 cell line = test: CellTiter-Blue cell viability assay, A549; conditions: Homo sapiens, A549, 24 h, read-out: IC50 (µM ± SD) A549
Experimental: (§1) The cytotoxic activity of these compounds was evaluated in vitro (triplicate run) on the MCF-7, A549 and Vero cell lines using the CellTiter-Blue Cell viability assay (Promega, Madison, WI, USA) assay referring to the reported instructions as described in our previous study [70]. The cells were maintained in culture flasks in the presence of Dulbecco’s Modified Eagle’s Medium (DMEM; Gibco, Carlsbad, CA, USA) supplemented with 10% fetal bovine serum (FBS) and 1% penicillin/streptomycin and then incubated at 37 °C in 5% CO2. The cells were detached using 2% trypsin upon reaching 85% confluency and counted with a hand-held automated cell counter (Scapter 3.0™, Merck, Burlington, MA, USA). The cells were then seeded at 1 × 10^5 cells/well and the well-plates were incubated overnight to allow cell attachment. […] The mixtures were incubated for another 24 h and then 20 µL of the CellTiter-Blue solution was added to each well. Fluorescence was measured using an Elisa microplate reader (ThermoFisher Scientific, Vario SkanFlash, Vantaa, Finland) at 560 nm excitation/590 nm emission.

MCF-7 cell line = test: CellTiter-Blue cell viability assay, MCF-7; conditions: Homo sapiens, MCF7, 24 h, read-out: IC50 (µM ± SD) MCF-7
Experimental: as §1

Human VEGFR-2 (KDR) = Human VEGFR-2 (KDR) (Homo sapiens, UniProt P35968); test: Human VEGFR-2 (KDR) kinase assay kit (Kinase-Glo MAX)
Sequence of Human VEGFR-2 (KDR) (P35968 20-1356): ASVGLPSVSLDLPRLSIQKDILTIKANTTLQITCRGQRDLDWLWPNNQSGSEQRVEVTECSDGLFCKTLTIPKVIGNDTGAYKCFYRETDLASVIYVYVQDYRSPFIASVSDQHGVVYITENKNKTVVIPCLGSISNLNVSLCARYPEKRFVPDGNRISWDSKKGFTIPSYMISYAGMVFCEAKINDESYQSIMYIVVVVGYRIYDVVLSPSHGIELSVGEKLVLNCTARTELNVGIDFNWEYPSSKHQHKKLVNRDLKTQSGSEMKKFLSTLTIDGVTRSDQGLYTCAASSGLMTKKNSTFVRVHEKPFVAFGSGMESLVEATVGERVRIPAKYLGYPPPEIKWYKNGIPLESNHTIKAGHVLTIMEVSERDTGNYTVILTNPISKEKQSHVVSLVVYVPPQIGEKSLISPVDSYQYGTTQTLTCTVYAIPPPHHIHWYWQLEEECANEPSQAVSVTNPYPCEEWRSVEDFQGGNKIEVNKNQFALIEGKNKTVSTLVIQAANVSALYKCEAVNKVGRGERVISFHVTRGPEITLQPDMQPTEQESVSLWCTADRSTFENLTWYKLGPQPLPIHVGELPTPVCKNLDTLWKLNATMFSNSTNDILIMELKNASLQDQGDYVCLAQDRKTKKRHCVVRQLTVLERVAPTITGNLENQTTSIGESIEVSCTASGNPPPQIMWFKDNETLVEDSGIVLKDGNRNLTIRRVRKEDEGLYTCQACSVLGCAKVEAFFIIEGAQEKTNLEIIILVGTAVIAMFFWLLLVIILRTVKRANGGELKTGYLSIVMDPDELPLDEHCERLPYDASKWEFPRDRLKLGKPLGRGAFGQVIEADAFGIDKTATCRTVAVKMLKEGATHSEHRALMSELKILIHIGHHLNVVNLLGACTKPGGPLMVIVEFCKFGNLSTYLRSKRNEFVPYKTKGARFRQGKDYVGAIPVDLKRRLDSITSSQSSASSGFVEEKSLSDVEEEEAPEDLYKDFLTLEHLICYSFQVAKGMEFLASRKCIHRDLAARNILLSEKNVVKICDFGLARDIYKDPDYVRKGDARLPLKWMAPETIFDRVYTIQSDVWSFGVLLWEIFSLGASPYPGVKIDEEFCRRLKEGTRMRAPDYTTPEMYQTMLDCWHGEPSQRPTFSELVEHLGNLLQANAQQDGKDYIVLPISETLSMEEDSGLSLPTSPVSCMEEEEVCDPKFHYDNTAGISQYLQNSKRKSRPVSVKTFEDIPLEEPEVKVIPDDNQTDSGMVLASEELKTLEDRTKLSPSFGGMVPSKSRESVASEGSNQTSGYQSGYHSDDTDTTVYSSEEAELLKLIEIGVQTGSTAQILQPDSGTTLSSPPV
Experimental: The VEGFR-2 enzyme (1 ng/μL) was added to the wells and the mixtures were incubated at 30 °C. After 45 min of incubation, kinase detection reagent (50 μL, Kinase-Glo MAX, Promega) was added to each well. The mixtures were incubated for 15 min at room temperature in the dark. A luminescence reading was detected and quantified by a microplate reader (Varioskan Flash, ThermoFisher Scientific, Vantaa, Finland). The IC50 values were determined by the nonlinear regression analysis using GraphPad Prism software version 8.0 (GraphPad Software, Inc., San Diego, CA, USA).

Vero cell line = test: CellTiter-Blue cell viability assay, Vero; conditions: Chlorocebus sabaeus, 24 h, read-out: IC50 (µM ± SD) Vero
Experimental: as §1

PTP1B = molecular target: T1, PTP1B (Homo sapiens, UniProt P18031); test: In vitro PTP1B inhibitory assay (Fluorogenic PTP1B (Catalytic Domain) Assay)
T1 sequence (P18031 3-277 limits assumed): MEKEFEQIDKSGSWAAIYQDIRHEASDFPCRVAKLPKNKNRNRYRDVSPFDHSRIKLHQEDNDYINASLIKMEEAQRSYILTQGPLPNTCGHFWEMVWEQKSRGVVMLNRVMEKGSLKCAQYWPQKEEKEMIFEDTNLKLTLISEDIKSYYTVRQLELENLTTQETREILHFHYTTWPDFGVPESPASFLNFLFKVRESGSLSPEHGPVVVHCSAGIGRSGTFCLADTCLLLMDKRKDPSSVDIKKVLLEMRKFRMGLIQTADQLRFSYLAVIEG

α-amylase = molecular target: T2, α-amylase (Homo sapiens, UniProt P04746); test: In vitro α-amylase inhibitory assay (α-Amylase Inhibitor Screening Kit)
T2 sequence (P04746 16-511): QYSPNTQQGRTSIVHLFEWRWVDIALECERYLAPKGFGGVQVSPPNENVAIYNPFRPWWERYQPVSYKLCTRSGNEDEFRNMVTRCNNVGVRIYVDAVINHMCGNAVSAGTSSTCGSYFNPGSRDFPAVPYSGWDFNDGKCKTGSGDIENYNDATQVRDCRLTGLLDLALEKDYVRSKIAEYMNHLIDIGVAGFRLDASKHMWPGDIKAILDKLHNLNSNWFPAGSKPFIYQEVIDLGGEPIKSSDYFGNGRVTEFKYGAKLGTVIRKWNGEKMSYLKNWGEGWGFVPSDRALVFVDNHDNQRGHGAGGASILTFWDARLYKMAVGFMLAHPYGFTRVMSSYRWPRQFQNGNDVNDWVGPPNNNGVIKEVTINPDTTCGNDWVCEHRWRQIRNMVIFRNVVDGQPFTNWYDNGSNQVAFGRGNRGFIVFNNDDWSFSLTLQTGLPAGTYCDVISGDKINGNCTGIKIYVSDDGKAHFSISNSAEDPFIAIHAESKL
Experimental: The α-amylase assay was performed in triplicate using a 96-well plate using the α-Amylase Inhibitor Screening Kit (Catalog No. K482; Abcam, Cambridge, UK). […] A solution of α-amylase enzyme (50 μL) prepared by adding 490 μL of assay buffer to 10 μL of α-amylase enzyme was added to each of the wells containing the reaction mixture to initiate the reaction. The plate was incubated for 10 min. at room temperature in the dark. Five different absorbance readings were recorded for each triplicate run at a wavelength of 405 nm using Varioskan flash microplate spectrophotometer (Thermo Scientific, Waltham, MA, USA). The IC50 and SD values were calculated using the Graph Pad Prism software.

Sequence of α-glucosidase from Saccharomyces cerevisiae (P53341 whole entry): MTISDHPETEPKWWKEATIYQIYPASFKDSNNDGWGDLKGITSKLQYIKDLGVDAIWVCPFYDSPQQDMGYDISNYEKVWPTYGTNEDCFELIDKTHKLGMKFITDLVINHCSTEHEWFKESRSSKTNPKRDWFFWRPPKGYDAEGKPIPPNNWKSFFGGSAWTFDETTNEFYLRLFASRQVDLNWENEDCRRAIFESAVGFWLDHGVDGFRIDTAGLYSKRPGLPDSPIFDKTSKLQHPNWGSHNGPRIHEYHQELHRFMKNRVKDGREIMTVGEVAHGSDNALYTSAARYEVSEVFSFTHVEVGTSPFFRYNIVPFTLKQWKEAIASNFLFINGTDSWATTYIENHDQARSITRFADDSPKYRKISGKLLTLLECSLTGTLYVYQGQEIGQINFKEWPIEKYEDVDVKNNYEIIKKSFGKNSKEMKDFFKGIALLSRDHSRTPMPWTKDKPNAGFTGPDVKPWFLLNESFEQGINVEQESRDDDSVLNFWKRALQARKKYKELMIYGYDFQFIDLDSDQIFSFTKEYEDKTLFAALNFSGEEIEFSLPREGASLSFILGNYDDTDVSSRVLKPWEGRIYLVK

SMILES	IC50 [1] [µM]	IC50 (A549 cell line) [µM]	IC50 (MCF-7 cell line) [µM]	IC50 (Vero cell line) [µM]	other results
CC(=O)c1cc(F)cc([N+](=O)[O-])c1O [Compound 1a]	16.9 ± 0.064				
CC(=O)c1cc(Cl)cc([N+](=O)[O-])c1O [Compound 1b]	27.2 ± 0.195				
CC(=O)c1cc(Br)cc([N+](=O)[O-])c1O [Compound 1c]	11.9 ± 0.01				
CC(=O)c1cc(C)cc([N+](=O)[O-])c1O [Compound 1d]	8.2 ± 0.015				inhibition of α-glucosidase activity (reported) (α-glucosidase): low nanomolar concentrations
CC(=O)c1cc(F)cc([N+](=O)[O-])c1OS(=O)(=O)c1ccccc1F [Compound 2a, 2-Acetyl-4-fluoro-6-nitrophenyl 2-fluorobenzenesulfonate]	5.6 ± 0.038	7.75 ± 0.11	4.96 ± 0.05	39.21 ± 0.13	IC50 (Human VEGFR-2 (KDR)): 28.7 ± 0.27 µM
CC(=O)c1cc(F)cc([N+](=O)[O-])c1OS(=O)(=O)c1cccc(F)c1 [Compound 2b, 2-Acetyl-4-fluoro-6-nitrophenyl 3-fluorobenzenesulfonate]	8.6 ± 0.025				
CC(=O)c1cc(Cl)cc([N+](=O)[O-])c1OS(=O)(=O)c1ccccc1F [Compound 2g, 2-Acetyl-4-chloro-6-nitrophenyl 2-fluorobenzenesulfonate]	4.2 ± 0.054	6.15 ± 0.06	9.92 ± 0.09	33.93 ± 0.15	IC50 (PTP1B): 16.9 ± 0.016 µM; IC50 (Human VEGFR-2 (KDR)): 34.4 ± 0.26 µM; IC50 (α-amylase): 7 ± 0.04 µM
CC(=O)c1cc(Cl)cc([N+](=O)[O-])c1OS(=O)(=O)c1cccc(F)c1 [Compound 2h, 2-Acetyl-4-chloro-6-nitrophenyl 3-fluorobenzenesulfonate]	12.4 ± 0.041				
CC(=O)c1cc(Cl)cc([N+](=O)[O-])c1OS(=O)(=O)c1ccc(F)cc1 [Compound 2i, 2-Acetyl-4-chloro-6-nitrophenyl 4-fluorobenzenesulfonate]	10.6 ± 0.039				
COc1ccc(S(=O)(=O)Oc2c(C(C)=O)cc(Cl)cc2[N+](=O)[O-])cc1 [Compound 2l, 2-Acetyl-4-chloro-6-nitrophenyl 4-methoxybenzenesulfonate]	8.5 ± 0.043				
CC(=O)c1cc(Br)cc([N+](=O)[O-])c1OS(=O)(=O)c1ccccc1F [Compound 2m, 2-Acetyl-4-bromo-6-nitrophenyl 2-fluorobenzenesulfonate]	7.9 ± 0.044				
CC(=O)c1cc(Br)cc([N+](=O)[O-])c1OS(=O)(=O)c1cccc(F)c1 [Compound 2n, 2-Acetyl-4-bromo-6-nitrophenyl 3-fluorobenzenesulfonate]	18.2 ± 0.041				
CC(=O)c1cc(Br)cc([N+](=O)[O-])c1OS(=O)(=O)c1ccc(F)cc1 [Compound 2o, 2-Acetyl-4-bromo-6-nitrophenyl 4-fluorobenzenesulfonate]	20.5 ± 0.058				
COc1ccc(S(=O)(=O)Oc2c(C(C)=O)cc(Br)cc2[N+](=O)[O-])cc1 [Compound 2r, 2-Acetyl-4-bromo-6-nitrophenyl 4-methoxybenzenesulfonate]	13.2 ± 0.043				
CC(=O)c1cc(C)cc([N+](=O)[O-])c1OS(=O)(=O)c1ccccc1F [Compound 2s, 2-Acetyl-4-methyl-6-nitrophenyl 2-fluorobenzenesulfonate]	18.1 ± 0.048				
CC(=O)c1cc(C)cc([N+](=O)[O-])c1OS(=O)(=O)c1cccc(F)c1 [Compound 2t, 2-Acetyl-4-methyl-6-nitrophenyl 3-fluorobenzenesulfonate]	13.1 ± 0.045				
CC(=O)c1cc(C)cc([N+](=O)[O-])c1OS(=O)(=O)c1ccc(F)cc1 [Compound 2u, 2-Acetyl-4-methyl-6-nitrophenyl 4-fluorobenzenesulfonate]	11.2 ± 0.045				
COc1ccc(S(=O)(=O)Oc2c(C(C)=O)cc(C)cc2[N+](=O)[O-])cc1 [Compound 2x, 2-Acetyl-4-methyl-6-nitrophenyl 4-methoxybenzenesulfonate]	3.6 ± 0.029	1.01 ± 0.01	11.01 ± 0.07	56.77 ± 0.18	IC50 (PTP1B): 21.5 ± 0.066 µM; IC50 (Human VEGFR-2 (KDR)): 24.2 ± 0.22 µM; IC50 (α-amylase): 11.9 ± 0.022 µM
COc1cccc2c1C(=O)c1c(O)c3c(c(O)c1C2=O)C[C@@](O)(C(=O)CO)C[C@@H]3O[C@H]1C[C@H](N)[C@H](O)[C@H](C)O1 [Doxorubicin, reference compound]		0.71 ± 0.09	0.59 ± 0.03	0.94 ± 0.04	
COC(=O)c1ccc2c(c1)NC(=O)/C2=C(\Nc1ccc(N(C)C(=O)CN2CCN(C)CC2)cc1)c1ccccc1 [Nintedanib, reference compound]		0.78 ± 0.04	0.4 ± 0.03	0.24 ± 0.02	

Continued, in another order:

IC50 [1] [µM]	IC50 (A549 cell line) [µM]	IC50 (MCF-7 cell line) [µM]	SMILES	IC50 (Vero cell line) [µM]	other results
27.4 ± 0.044			CC(=O)c1cc(F)cc([N+](=O)[O-])c1OS(=O)(=O)c1ccc(F)cc1 [Compound 2c, 2-Acetyl-4-fluoro-6-nitrophenyl 4-fluorobenzenesulfonate]		
6.4 ± 0.012			CC(=O)c1cc(F)cc([N+](=O)[O-])c1OS(=O)(=O)c1ccc(C(F)(F)F)cc1 [Compound 2d, 2-Acetyl-4-fluoro-6-nitrophenyl 4-(trifluoromethyl)benzenesulfonate]		
3.1 ± 0.043	7.42 ± 0.09	8.18 ± 0.03	CC(=O)c1cc(F)cc([N+](=O)[O-])c1OS(=O)(=O)c1ccc(OC(F)(F)F)cc1 [Compound 2e, 2-Acetyl-4-fluoro-6-nitrophenyl 4-(trifluoromethoxy)benzenesulfonate]	20.78 ± 0.14	IC50 (PTP1B): 23.1 ± 0.006 µM; IC50 (Human VEGFR-2 (KDR)): 28.5 ± 0.23 µM; IC50 (α-amylase): 15.2 ± 0.019 µM
5.4 ± 0.03	2.52 ± 0.02	2.58 ± 0.02	CC(=O)c1cc(Cl)cc([N+](=O)[O-])c1OS(=O)(=O)c1ccc(C(F)(F)F)cc1 [Compound 2j, 2-Acetyl-4-chloro-6-nitrophenyl 4-(trifluoromethyl)benzenesulfonate]	38.86 ± 0.16	IC50 (PTP1B): 19.6 ± 0.042 µM; IC50 (Human VEGFR-2 (KDR)): 20.8 ± 0.35 µM; IC50 (α-amylase): 7.3 ± 0.008 µM
3.9 ± 0.031	1.89 ± 0.05	34.53 ± 0.12	CC(=O)c1cc(Cl)cc([N+](=O)[O-])c1OS(=O)(=O)c1ccc(OC(F)(F)F)cc1 [Compound 2k, 2-Acetyl-4-chloro-6-nitrophenyl 4-(trifluoromethoxy)benzenesulfonate]	33.39 ± 0.13	IC50 (PTP1B): 20.1 ± 0.065 µM; IC50 (Human VEGFR-2 (KDR)): 26.4 ± 0.2 µM; IC50 (α-amylase): 9.8 ± 0.021 µM
8 ± 0.06			CC(=O)c1cc(Br)cc([N+](=O)[O-])c1OS(=O)(=O)c1ccc(C(F)(F)F)cc1 [Compound 2p, 2-Acetyl-4-bromo-6-nitrophenyl 4-(trifluoromethyl)benzenesulfonate]		
8.7 ± 0.075			CC(=O)c1cc(Br)cc([N+](=O)[O-])c1OS(=O)(=O)c1ccc(OC(F)(F)F)cc1 [Compound 2q, 2-Acetyl-4-bromo-6-nitrophenyl 4-(trifluoromethoxy)benzenesulfonate]		
3 ± 0.014	5.5 ± 0.01	8.58 ± 0.07	CC(=O)c1cc(C)cc([N+](=O)[O-])c1OS(=O)(=O)c1ccc(C(F)(F)F)cc1 [Compound 2v, 2-Acetyl-4-methyl-6-nitrophenyl 4-(trifluoromethyl)benzenesulfonate]	48.02 ± 0.18	IC50 (PTP1B): 7.6 ± 0.07 µM; IC50 (Human VEGFR-2 (KDR)): 16.3 ± 0.29 µM; IC50 (α-amylase): 6 ± 0.02 µM
6 ± 0.034			CC(=O)c1cc(C)cc([N+](=O)[O-])c1OS(=O)(=O)c1ccc(OC(F)(F)F)cc1 [Compound 2w, 2-Acetyl-4-methyl-6-nitrophenyl 4-(trifluoromethoxy)benzenesulfonate]		IC50 (α-amylase): 16.7 ± 0.035 µM
